# Measured values as given in patent US7388014B2, “Quinazoline derivatives and therapeutic use thereof” (Rexahn Pharmaceuticals, Inc., priority 2004, dated 2008).
# Test system: A549
# Test: Cell growth inhibition assay (SRB), A549
# Format: cell-based, Human
# Details: A549 (lung), 96 hours
# Description: (§1) Cancer cells used in this study to determine the effect of quinazoline compounds were obtained from the following sources: Human OVCAR-3 (ovary), MCF-7 (breast, hormone-dependent), Hs 578T (breast), MDA-MB-231 (breast), HeLa (cervix), PC3 (prostate), HepG2 (liver), A549 (lung), Caki-1 (kidney), HT-29 (colon), HCT116 (colon) and PANC-1 (pancreas) from the American Type Culture Collection (ATCC) (Manassas, Va.); U251 (brain) from Riken (Japan); MKN-45 (stomach) from DSMZ (Germany); UMRC2 (kidney) and Lox IMVI (melanoma) from the United States National Cancer Institute (Bethesda, Md.). All cell lines except Hs 578T, MDA-MB-231, HCT116, UMRC2, Caki-1 and PANC-1 were grown in RPMI1640 medium (Invitrogen, Carlsbad, Calif.) supplemented with 10% fetal bovine serum (“FBS”), 1 mM sodium pyruvate, 10 mM HEPES and 100 U/ml penicillin and 100 μg/ml streptomycin (“P/S”). Hs 578T, MDA-MB-231, HCT116, UMRC2, Caki-1 and PANC-1 cells were maintained in Dulbecco's modified Eagle's medium (“DMEM”, Invitrogen) supplemented with 10% FBS, P/S, 10 mM HEPES and 2 mM L-glutamine. All cells were incubated at 37° C. under humidified 5% CO2.
# (§2) The growth inhibition of the substituted quinazoline derivative compounds against a variety of human tumor cells was evaluated. The relative importance of particular substituent groups on the compounds was also studied. The substituted quinazoline derivative compounds, prepared as described above, were tested, along with DMSO as a control.
# (§3) The growth inhibition assay of various compounds against 15 human tumor cell lines was performed using the Sulforhodamnine B (“SRB”) method (Skehan et al., J. National Cancer Institute, 82: 1107-1112 (1990)). Briefly, exponentially growing tumor cells were seeded into a 96-well plate at a density of 2-3×10^3 cells/well and treated with quinazoline compounds the next day. Triplicate wells were used for each treatment. The cells were. incubated with the various compounds for 96 hours at 37° C. in a humidified 5% CO2 atmosphere. After 96-hour incubation, cells were fixed with 10% trichloroacetic acid (“TCA”), incubated for 1 hour at 4° C., and washed 3 times with tap water. Subsequently cells were stained with 0.4% sulforhodamine B in 1% acetic acid for 30 minutes, washed 4 times with 1% acetic acid, and air-dried again. After 5 minutes agitation in 10 mM Tris solution, the absorbance of each well was measured at 530 nm using Benchmark Plus Microplate reader (Bio-Rad Laboratories, Hercules, Calif.).
# (§4) To translate the OD530 values into the number of live cells in each well, the OD530 values were compared to those on standard OD530—versus—cell number curves generated for each cell line. The percent survival was calculated using the formula: % Survival=live cell number [test]/live cell number [control]×100
# (§5) The IC50 values were calculated by non-linear regression analysis.
row,Structure (SMILES),IC50
1,Brc1ccc2ncnc(NCCCCc3ccccc3)c2c1 [RX-1251],1.92 µM
2,Ic1ccc2ncnc(NC3CCCCC3)c2c1 [RX-1659],> 3 µM
3,Fc1cc(Cl)ccc1Nc1ncnc2ccc(Br)cc12 [RX-1279],2.86 µM
4,Cn1cnc2cc3ncnc(NCc4cccc(F)c4)c3cc21 [RX-1881],> 3 µM

# Test system: HepG2
# Test: Cell growth inhibition assay (SRB), HepG2
# Format: cell-based, Human
# Details: HepG2 (liver), 96 hours, read-out: Inhibition of cell growth (IC50, μM) HepG 2
# Description: as §1, §2, §3, §4, §5
row,Structure (SMILES),IC50
1,Brc1ccc2ncnc(NCCCCc3ccccc3)c2c1 [RX-1251],0.9 µM
2,Ic1ccc2ncnc(NC3CCCCC3)c2c1 [RX-1659],1 µM
3,Fc1cc(Cl)ccc1Nc1ncnc2ccc(Br)cc12 [RX-1279],0.75 µM
4,Cn1cnc2cc3ncnc(NCc4cccc(F)c4)c3cc21 [RX-1881],1.29 µM

# Test system: MKN-45
# Test: Cell growth inhibition assay (SRB), MKN-45
# Format: cell-based, Human
# Details: MKN-45 (stomach), 96 hours
# Description: as §1, §2, §3, §4, §5
row,Structure (SMILES),IC50
1,Brc1ccc2ncnc(NCCCCc3ccccc3)c2c1 [RX-1251],> 3 µM
2,Ic1ccc2ncnc(NC3CCCCC3)c2c1 [RX-1659],> 3 µM
3,Fc1cc(Cl)ccc1Nc1ncnc2ccc(Br)cc12 [RX-1279],> 3 µM
4,Cn1cnc2cc3ncnc(NCc4cccc(F)c4)c3cc21 [RX-1881],> 3 µM

# Test system: PANC-1
# Test: Cell growth inhibition assay (SRB), PANC-1
# Format: cell-based, Human
# Details: PANC-1 (pancreas), 96 hours
# Description: as §1, §2, §3, §4, §5
row,Structure (SMILES),IC50
1,Brc1ccc2ncnc(NCCCCc3ccccc3)c2c1 [RX-1251],> 3 µM
2,Ic1ccc2ncnc(NC3CCCCC3)c2c1 [RX-1659],> 3 µM
3,Fc1cc(Cl)ccc1Nc1ncnc2ccc(Br)cc12 [RX-1279],> 3 µM
4,Cn1cnc2cc3ncnc(NCc4cccc(F)c4)c3cc21 [RX-1881],> 3 µM

# Test system: HT-29
# Test: Cell growth inhibition assay (SRB), HT-29
# Format: cell-based, Human
# Details: HT-29 (colon), 96 hours
# Description: as §1, §2, §3, §4, §5
row,Structure (SMILES),IC50
1,Brc1ccc2ncnc(NCCCCc3ccccc3)c2c1 [RX-1251],> 3 µM
2,Ic1ccc2ncnc(NC3CCCCC3)c2c1 [RX-1659],> 3 µM
3,Fc1cc(Cl)ccc1Nc1ncnc2ccc(Br)cc12 [RX-1279],> 3 µM
4,Cn1cnc2cc3ncnc(NCc4cccc(F)c4)c3cc21 [RX-1881],> 3 µM

# Test system: PC3
# Test: Cell growth inhibition assay (SRB), PC3
# Format: cell-based, Human
# Details: PC3 (prostate), 96 hours
# Description: as §1, §2, §3, §4, §5
row,Structure (SMILES),IC50
1,Brc1ccc2ncnc(NCCCCc3ccccc3)c2c1 [RX-1251],> 3 µM
2,Ic1ccc2ncnc(NC3CCCCC3)c2c1 [RX-1659],> 3 µM
3,Fc1cc(Cl)ccc1Nc1ncnc2ccc(Br)cc12 [RX-1279],> 3 µM
4,Cn1cnc2cc3ncnc(NCc4cccc(F)c4)c3cc21 [RX-1881],> 3 µM

# Test system: U251
# Test: Cell growth inhibition assay (SRB), U251
# Format: cell-based, Human
# Details: U251 (brain), 96 hours
# Description: as §1, §2, §3, §4, §5
row,Structure (SMILES),IC50
1,Brc1ccc2ncnc(NCCCCc3ccccc3)c2c1 [RX-1251],0.42 µM
2,Ic1ccc2ncnc(NC3CCCCC3)c2c1 [RX-1659],0.51 µM
3,Fc1cc(Cl)ccc1Nc1ncnc2ccc(Br)cc12 [RX-1279],2.97 µM
4,Cn1cnc2cc3ncnc(NCc4cccc(F)c4)c3cc21 [RX-1881],0.91 µM

# Test system: HeLa
# Test: Cell growth inhibition assay (SRB), HeLa
# Format: cell-based, Human
# Details: HeLa (cervix), 96 hours
# Description: as §1, §2, §3, §4, §5
row,Structure (SMILES),IC50
1,Brc1ccc2ncnc(NCCCCc3ccccc3)c2c1 [RX-1251],> 3 µM
2,Ic1ccc2ncnc(NC3CCCCC3)c2c1 [RX-1659],> 3 µM
3,Fc1cc(Cl)ccc1Nc1ncnc2ccc(Br)cc12 [RX-1279],> 3 µM
4,Cn1cnc2cc3ncnc(NCc4cccc(F)c4)c3cc21 [RX-1881],> 3 µM

# Test system: Lox IMVI
# Test: Cell growth inhibition assay (SRB), Lox IMVI
# Format: cell-based, Human
# Details: Lox IMVI (melanoma), 96 hours
# Description: as §1, §2, §3, §4, §5
row,Structure (SMILES),IC50
1,Brc1ccc2ncnc(NCCCCc3ccccc3)c2c1 [RX-1251],0.19 µM
2,Ic1ccc2ncnc(NC3CCCCC3)c2c1 [RX-1659],1.95 µM
3,Fc1cc(Cl)ccc1Nc1ncnc2ccc(Br)cc12 [RX-1279],> 3 µM
4,Cn1cnc2cc3ncnc(NCc4cccc(F)c4)c3cc21 [RX-1881],> 3 µM

# Test system: OVCAR-3
# Test: Cell growth inhibition assay (SRB), OVCAR-3
# Format: cell-based, Human
# Details: OVCAR-3 (ovary), 96 hours
# Description: as §1, §2, §3, §4, §5
row,Structure (SMILES),IC50
1,Brc1ccc2ncnc(NCCCCc3ccccc3)c2c1 [RX-1251],> 3 µM
2,Ic1ccc2ncnc(NC3CCCCC3)c2c1 [RX-1659],> 3 µM
3,Fc1cc(Cl)ccc1Nc1ncnc2ccc(Br)cc12 [RX-1279],> 3 µM
4,Cn1cnc2cc3ncnc(NCc4cccc(F)c4)c3cc21 [RX-1881],> 3 µM

# Test system: MCF-7
# Test: Cell growth inhibition assay (SRB), MCF-7
# Format: cell-based, Human
# Details: MCF-7 (breast, hormone-dependent), 96 hours
# Description: as §1, §2, §3, §4, §5
row,Structure (SMILES),IC50
1,Brc1ccc2ncnc(NCCCCc3ccccc3)c2c1 [RX-1251],0.55 µM
2,Ic1ccc2ncnc(NC3CCCCC3)c2c1 [RX-1659],0.36 µM
3,Fc1cc(Cl)ccc1Nc1ncnc2ccc(Br)cc12 [RX-1279],> 3 µM
4,Cn1cnc2cc3ncnc(NCc4cccc(F)c4)c3cc21 [RX-1881],0.68 µM

# Test system: MDA-MB-231
# Test: Cell growth inhibition assay (SRB), MDA-MB-231
# Format: cell-based, Human
# Details: MDA-MB-231 (breast), 96 hours
# Description: as §1, §2, §3, §4, §5
row,Structure (SMILES),IC50
1,Brc1ccc2ncnc(NCCCCc3ccccc3)c2c1 [RX-1251],0.34 µM
2,Ic1ccc2ncnc(NC3CCCCC3)c2c1 [RX-1659],> 3 µM
3,Fc1cc(Cl)ccc1Nc1ncnc2ccc(Br)cc12 [RX-1279],> 3 µM
4,Cn1cnc2cc3ncnc(NCc4cccc(F)c4)c3cc21 [RX-1881],> 3 µM

# Test system: Hs 578T
# Test: Cell growth inhibition assay (SRB), Hs 578T
# Format: cell-based, Human
# Details: Hs 578T (breast), 96 hours
# Description: as §1, §2, §3, §4, §5
row,Structure (SMILES),IC50
1,Brc1ccc2ncnc(NCCCCc3ccccc3)c2c1 [RX-1251],0.43 µM
2,Ic1ccc2ncnc(NC3CCCCC3)c2c1 [RX-1659],> 3 µM
3,Fc1cc(Cl)ccc1Nc1ncnc2ccc(Br)cc12 [RX-1279],> 3 µM
4,Cn1cnc2cc3ncnc(NCc4cccc(F)c4)c3cc21 [RX-1881],> 3 µM

# Test system: UMRC2
# Test: Cell growth inhibition assay (SRB), UMRC2
# Format: cell-based, Human
# Details: UMRC2 (kidney), 96 hours
# Description: as §1, §2, §3, §4, §5
row,Structure (SMILES),IC50
1,Brc1ccc2ncnc(NCCCCc3ccccc3)c2c1 [RX-1251],0.47 µM
2,Ic1ccc2ncnc(NC3CCCCC3)c2c1 [RX-1659],> 3 µM
3,Fc1cc(Cl)ccc1Nc1ncnc2ccc(Br)cc12 [RX-1279],> 3 µM
4,Cn1cnc2cc3ncnc(NCc4cccc(F)c4)c3cc21 [RX-1881],> 3 µM

# Test system: Caki-1
# Test: Cell growth inhibition assay (SRB), Caki-1
# Format: cell-based, Human
# Details: Caki-1 (kidney), 96 hours
# Description: as §1, §2, §3, §4, §5
row,Structure (SMILES),IC50
1,Brc1ccc2ncnc(NCCCCc3ccccc3)c2c1 [RX-1251],1.96 µM
2,Ic1ccc2ncnc(NC3CCCCC3)c2c1 [RX-1659],1.71 µM
3,Fc1cc(Cl)ccc1Nc1ncnc2ccc(Br)cc12 [RX-1279],2.15 µM
4,Cn1cnc2cc3ncnc(NCc4cccc(F)c4)c3cc21 [RX-1881],2.34 µM
